Measured values: patent US6142972A, “Method and apparatus for the delivery of elongate solid drug compositions” (Delab, priority 1998, dated 2000)

Assays:
[1] = Pharmacokinetics of SOMATULINE™ filament vs liquid solution in dogs (FIGS. 4A and 4B); type: in vivo; details: dog, blood
Experimental: FIGS. 4A and 4B are graphs showing the blood level in a dog of a somatostatin analog, SOMATULINE™ (BIM-23014C, Biomeasure, Milford Mass.) after implantation of a solid filament compared to a liquid solution of BIM-23014C.
The above protocol was performed by mixing 1.500 g of HEC and 8.500 g of water. 0.42250 g of the resulting gel was added to 0.06395 g of BIM 23014. The mixture was extruded through a […] (0.3 mm internal diameter needle), collected, and dried under vacuum for 24 hours. The dried filament contained 0.107 mg of BIM 23014/cm (weight percentage 50% HEC and 50% BIM 23014).
The filaments were tested for pharmacokinetics and compared to liquid infusions of the same dosage of SOMATULINE™ in dogs. The results are shown in the graphs in FIGS. 4A, 4B, and 5. […] However, the blood concentration decreased to less than 0.1 ng/ml within about 2 hours, to less than 0.001 within about 8 hours, and to about 0.0005 ng/ml in less than 12 hours. On the other hand, the blood concentration of SOMATULINE™ provided by the solid drug filament was at an almost constant level over 0.1 ng/ml for the first 10 hours, declined to about 0.002 ng/ml within 24 hours, and declined further to 0.0005 ng/ml by 72 hours.

[2] = pure insulin, depending on purity; cited from earlier work

| Compound | concentration at 10 h ([1]; solid drug filament, first 10 hours, read-out: blood concentration of SOMATULINE™ (almost constant level)) | concentration at 24 h ([1]; solid drug filament, within 24 hours) | C0 ([1]; solution formulation, initial, read-out: blood concentration of SOMATULINE™, initial) | concentration at 2 h ([1]; solution formulation, within about 2 hours) | concentration at 8 h ([1]; solution formulation, within about 8 hours) | Insulin Units (IU) per mg [2] |
| --- | --- | --- | --- | --- | --- | --- |
| CC(C)[C@@H]1NC(=O)[C@H](CCCCN)NC(=O)[C@@H](Cc2c[nH]c3ccccc23)NC(=O)[C@H](Cc2ccc(O)cc2)NC(=O)[C@@H](NC(=O)[C@H](N)Cc2ccc3ccccc3c2)CSSC[C@@H](C(=O)N[C@H](C(N)=O)[C@@H](C)O)NC1=O [SOMATULINE™] | > 0.1 ng/mL | ~0.002 ng/mL | ~0.5 ng/mL | < 0.1 ng/mL | < 0.001 ng/mL |  |
| recombinant human insulin: pure insulin, e.g., recombinant human insulin |  |  |  |  |  | 26 to 28 Insulin Units (IU) per mg |
